In patent US20240246960A1 (adMare Therapeutics Society, priority 2021, published 2024):
pEC50, pIC50: −log10 of the molar value. Where two headings read alike, the source gives them in different places.

How the values were obtained:
[1] = molecular target: T1, DNA-PK phosphorylation at Serine 2056 (Homo sapiens, UniProt P78527); test: Cellular Assay for Inhibition of DNA-PK Phosphorylation at Serine 2056 (FaDu cells, neocarzinostatin, sandwich ELISA); type: cell-based
T1 construct: host or cells: FaDu
Summary of the method: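 FaDu cells were pretreated with compound (0.3% DMSO) for 1 h, then exposed to neocarzinostatin at 1 μg/mL final for 2 h to induce DSBs. Protein-normalized lysates were assayed by MSD sandwich ELISA for total and pSer2056 DNA-PK. IC50 came from variable-slope fits of % inhibition relative to DMSO and NCS controls.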

[2] = molecular target: T2, pDNA-PK ser2056 induction in FaDU spheroids (Homo sapiens, UniProt P78527); test: Multicellular tumour spheroid + radiation, pDNA-PK inhibition, FaDU; type: cell-based; conditions: 20 Gy
T2 construct: host or cells: FaDu
Method: Multicellular tumour spheroids determination of compound inhibition of pDNA-PK induction following radiation. Tumour spheroids were grown to approximately 0.5 mm in diameter and irradiated with 20 Gy in combination with inhibitor test compounds to determine their potency. Inhibitor concentration for 50% reduction in pDNA-PK induction (IC50) was determined via immunohistochemical staining in spheroid cryosections taken 2 hours following radiation. For cell survival endpoint 8 Gy radiation was used and 3 hours following radiation spheroids were dissociated, counted and plated for colony forming endpoint.
Spheroid+radiation pDNA-PK. Radiation: 20 Gy. Drug: serial dilution 5 or 10 μM down to 3.5 nM (11 wells). Spheroids: 3-6 spheroids per well (300-500 μm diameter). 20% O2 and 5% CO2. 96 well plate format. Endpoint: fluorescent immunostain pDNA-PK ser2056 and image on microscope. Analysis: determine EC50 concentrations that decreases pDNA-PK induction […] after irradiation.
Multicellular tumour spheroids were used to determine potency of test compounds in a 3D tissue environment using inhibition of pDNA-PK induction following radiation or cell survival as the endpoint. For the pDNA-PK endpoint HCT116 or FaDU tumour spheroids were grown to approximately 0.5 mm in diameter and irradiated with 20 Gy in combination with inhibitor test compounds to determine their potency. Experiments were carried out in 96 well plates containing 0.7 mls of MEM media containing 10% FBS and 10 mM glucose under 20% O2 & 5% CO2 at 37° C. Following dilution of compounds 1:1000 from DMSO stocks, compounds were serially diluted from 10 μM down to 3.5 nM and 5-10 spheroids added. 96 well plates were constantly stirred to avoid spheroids settling during the course of the experiment. The inhibitor concentration for 50% reduction in pDNA-PK induction (EC50) was determined via immunohistochemical staining in spheroid cryosections taken 2 hours following radiation using anti-pDNA-PK (ser 2056) and fixed immediately in formalin following sectioning. For cell survival endpoint 8 Gy radiation was used and, 3 hours following radiation, spheroids were dissociated, counted and plated for colony forming endpoint. Data presented in the table compound potency as EC50 [μM].

[3] = molecular target: T3, pDNA-PK ser2056 induction in HCT116 spheroids (Homo sapiens, UniProt P78527); test: Multicellular tumour spheroid + radiation, pDNA-PK inhibition, HCT116; type: cell-based; conditions: 20 Gy
T3 construct: endogenous in cells; host or cells: HCT116 multicellular tumour spheroids
Summary of the method: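 HCT116 spheroids (~0.5 mm) in MEM/10% FBS/10 mM glucose, 20% O2, 37 °C, pre-incubated 1 h with compound (10 or 5 μM down to 3.5 nM), irradiated 20 Gy, incubated 2 h more. Cryosections immunostained for pDNA-PK ser2056; EC50 (μM) for 50% reduction of radiation-induced pDNA-PK.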

[4] = Microsomal stability assay, mouse liver microsomes; conditions: for microsomal CLint at 0.1 uM: male, CD-1, mouse, liver microsomes, pH 7.4, Microsomal Stability Mouse Clint
DNA-PK = molecular target: T4, DNA-PK (Homo sapiens, UniProt P78527); test: DNA-PK Assay for Biochemical Enzymatic Inhibition (ADP Glo Kinase assay)
T4 construct: purchased Invitrogen PR9107A
Summary of the method: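 Human DNA-PK (25 ng) preincubated 15 min with compounds (ten three-fold dilutions) in HEPES pH 7.5, MgCl2, KCl, calf thymus DNA buffer, then substrate 434.4 μM and ATP 64.4 μM (final) for 60 min at room temperature. ADP-Glo luminescence; percent inhibition fitted by four-parameter regression for IC50.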

[5] = Microsomal stability assay, human liver microsomes; type: in vitro ADME; conditions: for microsomal CLint at 0.1 uM: both sexes, human, liver microsomes
Method: Samples were then mixed and centrifuged. Supernatants were used for HPLC-MS/MS analysis. […] Peak areas corresponding to the test compound were recorded.

[6] = Hepatocyte stability assay, mouse hepatocytes; type: in vitro ADME; conditions: male, CD-1, mouse, cryopreserved hepatocytes, pH 7.3, Example 11
Method: (§1) Cryopreserved mouse hepatocytes were obtained from a pool of 10 or more male CD-1 mice. Cryopreserved human hepatocytes were obtained from a pool of 10 or more donors of mixed gender. Final hepatocyte density was 0.7 million viable cells per mL and test compound concentration was 1 uM with a maximum of 0.01% DMSO. Cryopreserved hepatocytes were thawed, washed, and resuspended in Krebs-Heinslet buffer (pH 7.3). The reaction was initiated by adding the test compound into cell suspension and incubated for 0, […], 1, 1.5, and 2 h, respectively, at 37° C./5% CO2. The reaction was stopped by adding acetonitrile into the incubation mixture. Samples were then mixed, transferred completely to another 96-well plate, and centrifuged. Supernatants were used for HPLC-MS/MS analysis. […] Peak areas corresponding to the test compound were recorded.

[7] = Hepatocyte stability assay, human hepatocytes; type: in vitro ADME; conditions: both sexes, human, cryopreserved hepatocytes, pH 7.3; Example 11
Method: as §1

[8] = Example 8, spheroid, read-out: Cell line: FaDU Immunohistochemical endpoint pDNA-PK inhibition EC50
[9] = Example 9 Study 2, 20% O2, read-out: Spheroid Cell line: FaDU Immunohistochemical endpoint pDNA-PK inhibition EC50
[10] = Example 7, spheroid, cell line HCT115 [sic], 20% O2, read-out: EC50 (pDNA-PK inhibition, immunohistochemical endpoint)
[11] = Example 8, spheroid, read-out: Cell line: HCT116 Immunohistochemical endpoint pDNA-PK inhibition EC50
[12] = Example 9 Study 2, 20% O2, read-out: Spheroid Cell line: HCT116 Immunohistochemical endpoint pDNA-PK inhibition EC50
[13] = 0.1 mg/mL microsomes, 0.1 uM compound

Row | pIC50 ([1]; Table 1) | pEC50 [2, 8] | pEC50 [2, 9] | pEC50 [3, 10] | pEC50 [3, 11] | pEC50 [3, 12] | Microsomal Stability (mouse) % rem. 60 min [4] | microsomal CLint at 0.1 uM [4, 13] | pIC50 (DNA-PK; Table 1) | Microsomal Stability (human) % rem. 60 min [5] | microsomal CLint at 0.1 uM ([5]; pH 7.4, 0.1 mg/mL microsomes, 0.1 uM compound) | hepatocyte CLint at 1 uM [6] | pIC50 ([1]; Table 2) | Microsomal Stability (mouse) % rem. 60 min ([4]; Example 11) | microsomal CLint at 0.1 uM ([4]; Example 11) | Microsomal Stability (human) % rem. 60 min ([5]; Example 11) | microsomal CLint at 0.1 uM ([5]; pH 7.4, Example 11) | pIC50 (DNA-PK; Table 2) | hepatocyte CLint at 1 uM [7] | SMILES
1 | > 7.00 | 6.00 to 6.30 | 6.00 to 6.30 | 5.00 to 6.00 | 5.00 to 6.00 | 5.00 to 6.00 | E (% remaining = 0-25%) | > 116 µL/min/mg | > 9.30 | – | – | – | – | – | – | – | – | – | – | FC(F)(F)c1cn([C@H]2CC[C@@H](Oc3nc(N4CCOCC4)cc4ncccc34)CC2)cn1 [Compound 17k, 4-(5-(((1s,4s)-4-(4-(trifluoromethyl)-1H-imidazol-1-yl)cyclohexyl)oxy)-1,6-naphthyridin-7-yl)morpholine]
2 | 6.00 to 7.00 | 6.30 to 8.00 | 6.30 to 8.00 | 6.30 to 8.00 | 6.30 to 8.00 | 6.30 to 8.00 | E (% remaining = 0-25%) | > 116 µL/min/mg | > 9.30 | – | – | – | – | – | – | – | – | – | – | c1cnc2cc(N3CCOCC3)nc(O[C@H]3CC[C@@H](Nc4cnccn4)CC3)c2c1 [Compound 23, N-((1s,4s)-4-((7-Morpholino-1,6-naphthyridin-5-yl)oxy)cyclohexyl)pyrazin-2-amine]
3 | 6.00 to 7.00 | 5.00 to 6.00 | 5.00 to 6.00 | 5.00 to 6.00 | 5.00 to 6.00 | 5.00 to 6.00 | F (% remaining = 25-50%) | > 116 µL/min/mg | 9.00 to 9.30 | – | – | – | – | – | – | – | – | – | – | c1ccc(N[C@H]2CC[C@@H](Oc3nc(N4CCOCC4)cc4ncccc34)CC2)nc1 [Compound 25, N-((1s,4s)-4-((7-morpholino-1,6-naphthyridin-5-yl)oxy)cyclohexyl)pyridin-2-amine]
4 | 6.00 to 7.00 | 6.30 to 8.00 | 6.30 to 8.00 | 5.00 to 6.00 | 5.00 to 6.00 | 5.00 to 6.00 | E (% remaining = 0-25%) | > 116 µL/min/mg | 9.00 to 9.30 | – | – | – | – | – | – | – | – | – | – | c1cnc2cc(N3CCOCC3)nc(O[C@H]3CC[C@@H](Nc4ccncc4)CC3)c2c1 [Compound 27, N-((1s,4s)-4-((7-morpholino-1,6-naphthyridin-5-yl)oxy)cyclohexyl)pyridin-4-amine]
5 | > 7.00 | 6.00 to 6.30 | 6.00 to 6.30 | 5.00 to 6.00 | 5.00 to 6.00 | 5.00 to 6.00 | E (% remaining = 0-25%) | > 116 µL/min/mg | > 9.30 | – | – | – | – | – | – | – | – | – | – | O=C(N[C@H]1CC[C@@H](Oc2nc(N3CCOCC3)cc3ncccc23)CC1)c1ccc(F)cc1 [Compound 111, 4-Fluoro-N-((1s,4s)-4-((7-morpholino-1,6-naphthyridin-5-yl)oxy)cyclohexyl)benzamide]
6 | 6.00 to 7.00 | 6.30 to 8.00 | 6.30 to 8.00 | 6.30 to 8.00 | 6.30 to 8.00 | 6.30 to 8.00 | E (% remaining = 0-25%) | > 116 µL/min/mg | > 9.30 | – | – | – | – | – | – | – | – | – | – | COc1ccc(C(=O)N[C@H]2CC[C@@H](Oc3nc(N4CCOCC4)cc4ncccc34)CC2)cc1 [Compound 112, 4-Methoxy-N-((1s,4s)-4-((7-morpholino-1,6-naphthyridin-5-yl)oxy)cyclohexyl)benzamide]
7 | 6.00 to 7.00 | 5.00 to 6.00 | 5.00 to 6.00 | 5.00 to 6.00 | 5.00 to 6.00 | 5.00 to 6.00 | E (% remaining = 0-25%) | > 116 µL/min/mg | 9.00 to 9.30 | – | – | – | – | – | – | – | – | – | – | Nc1cnc2cc(N3CCOCC3)nc(O[C@H]3CC[C@@H](n4ccnc4)CC3)c2c1 [Compound 160, 5-(((1s,4s)-4-(1H-imidazol-1-yl)cyclohexyl)oxy)-7-morpholino-1,6-naphthyridin-3-amine]
8 | 5.00 to 6.00 | – | – | 5.00 to 6.00 | – | 5.00 to 6.00 | G (% remaining = 50-75%) | < 116 µL/min/mg | 9.00 to 9.30 | G (% remaining = 50-75%) | < 116 µL/min/mg | – | – | – | – | – | – | – | – | CS(=O)(=O)Nc1cnc2cc(N3CCOCC3)nc(O[C@H]3CC[C@@H](NC(=O)c4ncccn4)CC3)c2c1 [Compound 177, N-((1s,4s)-4-((3-(methylsulfonamido)-7-morpholino-1,6-naphthyridin-5-yl)oxy)cyclohexyl)pyrimidine-2-carboxamide]
9 | – | – | – | – | – | – | – | – | – | – | – | > 8.2 µL/min/1e6 cells | > 7.00 | G (% remaining = 50-75%) | < 116 µL/min/mg | G (% remaining = 50-75%) | < 116 µL/min/mg | > 9.30 | – | CS(=O)(=O)Nc1cnc2cc(N3CCOCC3)nc(O[C@H]3CC[C@@H](Nc4ncccn4)CC3)c2c1 [LFA006, N-[7-Morpholino-5-[4-(pyrimidin-2-ylamino)cyclohexoxy]-1,6-naphthyridin-3-yl]methanesulfonamide]
10 | – | – | – | – | – | – | – | – | – | – | – | > 8.2 µL/min/1e6 cells | > 7.00 | G (% remaining = 50-75%) | < 116 µL/min/mg | H (% remaining = 75-100%) | < 116 µL/min/mg | 9.00 to 9.30 | – | CS(=O)(=O)Nc1cnc2cc(N3CCOCC3)nc(O[C@H]3CC[C@@H](Nc4ncc(C(F)(F)F)cn4)CC3)c2c1 [LFA022, N-[7-Morpholino-5-[4-[[5-(trifluoromethyl)pyrimidin-2-yl]amino]cyclohexoxy]-1,6-naphthyridin-3-yl]methanesulfonamide]
11 | – | – | – | – | – | – | – | – | – | – | – | > 8.2 µL/min/1e6 cells | > 7.00 | G (% remaining = 50-75%) | < 116 µL/min/mg | H (% remaining = 75-100%) | < 116 µL/min/mg | > 9.30 | < 8.2 µL/min/1e6 cells | CS(=O)(=O)Nc1cnc2cc(N3CCOCC3)nc(O[C@H]3CC[C@@H](Nc4ncc(C#N)cn4)CC3)c2c1 [LFA025, N-[5-[4-[(5-Cyanopyrimidin-2-yl)amino]cyclohexoxy]-7-morpholino-1,6-naphthyridin-3-yl]methanesulfonamide]
